Laboratory results: patent US12527739B2 (Alcon Inc., priority 2022, dated 2026)
Read-outs that look alike come from different tables or passages of the source. One block for each molecule: values may come before it.

Tests used:
myopia progression = conditions: higher doses; cited from earlier work
M1 muscarinic receptor = biological target: T1, M1 muscarinic receptor (Homo sapiens, UniProt P11229); test: Muscarinic receptor radioligand displacement binding, M1
T1 sequence (P11229 1-460): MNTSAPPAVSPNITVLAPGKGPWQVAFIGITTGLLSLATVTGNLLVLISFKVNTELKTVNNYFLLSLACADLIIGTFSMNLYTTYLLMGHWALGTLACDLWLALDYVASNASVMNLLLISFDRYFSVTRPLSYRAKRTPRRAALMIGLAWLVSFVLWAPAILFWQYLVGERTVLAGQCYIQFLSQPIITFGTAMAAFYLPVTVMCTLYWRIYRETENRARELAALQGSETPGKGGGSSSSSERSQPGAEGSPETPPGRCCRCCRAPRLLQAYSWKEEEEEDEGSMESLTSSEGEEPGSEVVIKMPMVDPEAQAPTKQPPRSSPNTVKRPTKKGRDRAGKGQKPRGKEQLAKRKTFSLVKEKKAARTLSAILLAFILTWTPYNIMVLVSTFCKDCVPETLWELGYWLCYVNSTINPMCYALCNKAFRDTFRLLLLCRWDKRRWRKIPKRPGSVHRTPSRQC

M2 muscarinic receptor = biological target: T2, M2 muscarinic receptor (Homo sapiens, UniProt P08172); test: Muscarinic receptor radioligand displacement binding, M2
T2 sequence (P08172 1-466): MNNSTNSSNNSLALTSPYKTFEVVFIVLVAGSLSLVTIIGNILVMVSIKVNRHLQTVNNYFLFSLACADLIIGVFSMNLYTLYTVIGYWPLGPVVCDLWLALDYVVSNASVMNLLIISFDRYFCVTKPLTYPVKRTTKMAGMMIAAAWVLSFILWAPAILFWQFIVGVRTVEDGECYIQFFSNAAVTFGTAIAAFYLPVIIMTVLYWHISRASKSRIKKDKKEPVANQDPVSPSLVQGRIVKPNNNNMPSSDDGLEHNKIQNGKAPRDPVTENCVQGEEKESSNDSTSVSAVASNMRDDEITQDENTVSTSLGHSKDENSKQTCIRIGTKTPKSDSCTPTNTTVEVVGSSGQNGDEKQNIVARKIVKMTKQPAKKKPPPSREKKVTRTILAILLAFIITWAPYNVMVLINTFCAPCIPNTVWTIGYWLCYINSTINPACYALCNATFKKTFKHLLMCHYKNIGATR

M3 muscarinic receptor = M3 muscarinic receptor (Homo sapiens, UniProt P20309); test: Muscarinic receptor radioligand displacement binding, M3
Sequence of M3 muscarinic receptor (P20309 whole entry): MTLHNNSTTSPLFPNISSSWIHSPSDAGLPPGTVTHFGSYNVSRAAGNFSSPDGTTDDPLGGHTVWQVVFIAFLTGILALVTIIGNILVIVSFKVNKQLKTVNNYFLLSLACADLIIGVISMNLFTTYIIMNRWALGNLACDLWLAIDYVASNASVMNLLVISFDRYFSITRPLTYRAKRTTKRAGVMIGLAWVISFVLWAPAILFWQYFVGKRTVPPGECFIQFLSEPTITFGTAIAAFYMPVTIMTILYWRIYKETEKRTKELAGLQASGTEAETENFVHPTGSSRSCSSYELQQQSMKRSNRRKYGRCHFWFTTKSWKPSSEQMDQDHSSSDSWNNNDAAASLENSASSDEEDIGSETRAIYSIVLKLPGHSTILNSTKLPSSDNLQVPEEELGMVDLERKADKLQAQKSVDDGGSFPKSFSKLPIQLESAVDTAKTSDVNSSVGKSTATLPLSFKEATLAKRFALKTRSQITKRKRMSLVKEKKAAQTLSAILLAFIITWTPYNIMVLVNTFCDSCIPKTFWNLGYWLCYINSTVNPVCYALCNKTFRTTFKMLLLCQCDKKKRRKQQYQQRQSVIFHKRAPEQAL

M4 muscarinic receptor = biological target: T3, M4 muscarinic receptor (Homo sapiens, UniProt P08173); test: Muscarinic receptor radioligand displacement binding, M4
T3 sequence (P08173 1-479): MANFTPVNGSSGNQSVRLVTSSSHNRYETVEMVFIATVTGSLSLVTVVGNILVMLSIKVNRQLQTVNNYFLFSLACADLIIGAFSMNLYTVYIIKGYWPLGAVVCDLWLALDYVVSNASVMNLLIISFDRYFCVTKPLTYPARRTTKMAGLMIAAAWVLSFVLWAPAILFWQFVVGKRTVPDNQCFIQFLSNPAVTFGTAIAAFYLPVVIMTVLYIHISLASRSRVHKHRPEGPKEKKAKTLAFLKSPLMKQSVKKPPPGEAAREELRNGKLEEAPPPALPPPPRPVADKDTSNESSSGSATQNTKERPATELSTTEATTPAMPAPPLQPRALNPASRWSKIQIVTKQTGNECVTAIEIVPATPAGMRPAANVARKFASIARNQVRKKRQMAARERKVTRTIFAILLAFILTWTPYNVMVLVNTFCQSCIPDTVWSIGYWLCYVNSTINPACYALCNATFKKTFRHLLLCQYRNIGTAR

M5 muscarinic receptor = biological target: T4, M5 muscarinic receptor (Homo sapiens, UniProt P08912); test: Muscarinic receptor radioligand displacement binding, M5
T4 sequence (P08912 1-532): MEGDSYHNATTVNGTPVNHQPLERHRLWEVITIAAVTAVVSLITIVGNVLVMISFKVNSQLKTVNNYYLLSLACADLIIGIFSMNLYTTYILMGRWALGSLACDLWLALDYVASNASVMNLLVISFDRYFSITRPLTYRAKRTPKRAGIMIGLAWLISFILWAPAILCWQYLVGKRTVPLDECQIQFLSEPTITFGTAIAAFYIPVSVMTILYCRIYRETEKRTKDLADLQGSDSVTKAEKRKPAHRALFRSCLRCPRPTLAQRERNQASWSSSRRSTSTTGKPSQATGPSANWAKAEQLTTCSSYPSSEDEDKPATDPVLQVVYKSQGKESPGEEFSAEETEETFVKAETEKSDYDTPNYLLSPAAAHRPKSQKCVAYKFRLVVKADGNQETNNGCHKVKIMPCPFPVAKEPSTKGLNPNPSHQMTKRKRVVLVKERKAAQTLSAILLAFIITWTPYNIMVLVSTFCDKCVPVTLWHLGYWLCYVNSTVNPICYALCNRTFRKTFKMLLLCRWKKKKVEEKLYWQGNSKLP

muscarinic receptors = test: Binding selectivity across the muscarinic receptors; conditions: M1-M5
[1] = tested on: form deprivation-induced myopia (FDM); test: Form deprivation-induced myopia (FDM) chick model; format: in vivo; conditions: FIG. 1 Panel A; for efficacy in FDM chick model: intravitreal injection day 2 and day 4, readout day 5; for change in refractive error (goggled eye value minus ungoggled eye value): with respect to 5% v/v ethanol solution
[2] = Methyl atropine in lowered-pH phosphate vehicles with tonicity agents; format: physicochemical
Text: Therefore, lowering the initial pH value of the vehicles was deemed necessary to: i) ensure higher solubility; and ii) reach an ophthalmically-acceptable target pH (5-8). Also, the addition of tonicity agents was needed to reach the acceptable target range of 280-320 mOsm/kg (Table 4 and Table 5).

[3] = pH adjustment of methyl atropine and benzyl atropine solutions, HPLC analysis; format: physicochemical; conditions: for Actual concentration (HPLC): after pH adjustment; for Initial pH: before pH adjustment
[4] = 5 min, pH 7.4
[5] = Solubility screen in two simple vehicles, pH 7.4; conditions: for pH of the formulation: pH 7.4
[6] = 0.5% Sodium Chloride in 20 mM Phosphate Buffer, pH 2.71
[7] = 3% Mannitol in 20 mM Phosphate Buffer, pH 4.8
[8] = 3.7% Mannitol in 20 mM Phosphate Buffer, pH 2.82
[9] = […] Sodium Choride in 20 mM Phosphate Buffer, pH 4.8

SMILES: CN1[C@@H]2CC[C@H]1C[C@@H](OC(=O)C(CO)c1ccccc1)C2 (mixture of isomers) [Atropine, atropine]
side effects (myopia progression): pupillary dilation and light sensitivity

Ki (M1 muscarinic receptor): 3.4 nM
Ki (M2 muscarinic receptor): 7.8 nM
Ki (M3 muscarinic receptor): 2.4 nM
Ki (M4 muscarinic receptor): 1.2 nM
Ki (M5 muscarinic receptor): 2.2 nM
selectivity of binding to the muscarinic receptors (muscarinic receptors): non-selective binding
Actual Concentration [2, 6]: 5.38 mg/g
Final pH [2, 6]: 6.7
Osmolality [2, 6]: 202.5 mOsm/kg
Actual Concentration [2, 7]: 5.62 mg/g
Final pH [2, 7]: 8.8
Osmolality [2, 7]: 217 mOsm/kg
Actual Concentration [2, 8]: 5.14 mg/g
Final pH [2, 8]: 6.8
Osmolality [2, 8]: 262.5 mOsm/kg
Actual Concentration [2, 9]: 5.14 mg/g
Final pH [2, 9]: 8.0
Osmolality [2, 9]: 182.5 mOsm/kg
Actual concentration (HPLC) ([3]; 30 mM Phosphate Buffer, pH 7.4): 4.61 mg/g
Initial pH ([3]; 30 mM Phosphate Buffer, pH 7.4): 8.1
Actual concentration (HPLC) ([3]; Phosphate Buffered Saline): 4.89 mg/g
Initial pH ([3]; Phosphate Buffered Saline): 9.3
Actual Concentration [4]: 1.63 mg/g
pH of the formulation ([5]; 30 mM Phosphate Buffer): 9.2
pH of the formulation ([5]; Phosphate Buffered Saline): 9.6
dissolution in vehicle (in words) ([5]; both vehicles: 30 mM phosphate buffer pH 7.4 and phosphate-buffered saline pH 7.4): did not entirely dissolve
SMILES: C[N+]1(C)[C@@H]2CC[C@H]1C[C@@H](OC(=O)C(CO)c1ccccc1)C2 (stereo partly shown) [Methyl Atropine, methyl atropine]
efficacy in FDM chick model [1]: effective
change in refractive error (goggled eye value minus ungoggled eye value) [1]: significantly decreased

SMILES: CN1C2CCC1CC(OC(=O)C(F)(CO)c1ccccc1)C2 (stereo not shown) [fluoro-atropine]
efficacy in FDM chick model [1]: effective
change in refractive error (goggled eye value minus ungoggled eye value) [1]: significantly decreased
